Experimental data taken from patent US11275078B2, “Method and system for sensing” (Ramot at Tel-Aviv University Ltd., priority 2015, dated 2022).

Columns and labels:
Format in all cases: cell-based, Human
[1] = test system: Jurkat cells; test: pH sensing of drug-treated Jurkat cells (reductant-added medium, nanowire FET); conditions: 24-hour monitoring, culture medium
From the text: A conversion of the modified FET into a pH sensor was achieved by using a reductant-added solution. After supplementing a culture medium with 0.1% v/v DEHA to reduce the modified FET surface, surface proton density varied by protonation or by deprotonation dominantly changes the measured current.
For pH sensing, 0.1% v/v DEHA was supplemented in the sensing medium to reduce the 9,10-anthraquinone monolayer on the FET surface to obtain 9,10-dihydroxyanthracene (see also FIG. 1d) and H2O2 simultaneously. Therefore, no significant amount of H2O2 in a DEHA-supplemented medium altered a measured signal. As a result, surface proton density, varied by protonation or by deprotonation, dominantly changes an acquired signal.

[2] = test system: Jurkat cells; test: Cell proliferation rate / viability of drug-treated Jurkat cells (trypan blue, hemocytometer); conditions: for cell viability: 24-hour viability observation
Protocol: Human T lymphocytes, Jurkat (TIB-152, ATCC), were cultured and incubated at 37° C. under a humidified 5% CO2 atmosphere. The culture medium used was RPMI 1640 medium (52400, GIBCO) with 10% fetal bovine serum (FBS; 04-001-1A, Biological Industry) and 1% penicillin/streptomycin (15140, GIBCO). During experiments, cells were re-suspended in phenol red-free medium (11835-063, GIBCO) in the presence or absence of a drug, either methotrexate hydrate (MTX; […], SIGMA) or 2-deoxy-D-glucose (2DG; […], SIGMA), at a density of 1×10^6 cells/ml. Cell viability was estimated by using a hemocytometer to count trypan blue-stained cells. Relative cell count, presented in FIGS. 6B and 6E-6F, is a ratio of the cell count at t=24 hours to the initial cell count.

[3] = test system: Jurkat cells; test: Extracellular lactate level of 2DG-treated Jurkat cells (lactate oxidase, nanowire biosensor); conditions: after 24 hours
Protocol: For lactate sensing, 0.1 unit/ml of lactate oxidase (LOX; L0638, SIGMA) was added in phenol red-free medium to convert lactate to pyruvate and H2O2 before lactate reaches the FET array (as depicted in FIG. 1D).
During experiments, cells were re-suspended in phenol red-free medium (11835-063, GIBCO) in the presence or absence of a drug, either methotrexate hydrate (MTX; M8407, SIGMA) or 2-deoxy-D-glucose (2DG; D6134, SIGMA), at a density of 1×10^6 cells/ml.
The correlation between extracellular lactate level of 2DG-treated Jurkat cells and a resultant cell proliferation rate after 24 hours was investigated.

[4] = test system: Jurkat cells; test: 24-hour monitoring of extracellular ROS levels of drug-treated Jurkat cells using the nanowire biosensor; conditions: t=6 hours, normalized by number of live cells
Protocol: For measurements of cellular metabolites/activity, cells were cultured in the chip, namely, in the culture compartment thereof (see, for example, FIG. 1A), while placing the chip in an incubator during measurements. A sample was introduced to the sensing compartment at 20 μl min^-1 by using a syringe pump. Human T lymphocytes, Jurkat (TIB-152, ATCC), were cultured and incubated at 37° C. under a humidified 5% CO2 atmosphere. The culture medium used was RPMI 1640 medium (52400, GIBCO) with 10% fetal bovine serum (FBS; 04-001-1A, Biological Industry) and 1% penicillin/streptomycin (15140, GIBCO). During experiments, cells were re-suspended in phenol red-free medium (11835-063, GIBCO) in the presence or absence of a drug, either methotrexate hydrate (MTX; […], SIGMA) or 2-deoxy-D-glucose (2DG; […], SIGMA), at a density of 1×10^6 cells/ml. Cellular samples were dispensed into the wells of the sensing chip (see FIGS. 1A and 1B) in an incubator. 24-hour monitoring of metabolic activity of drug-treated Jurkat cells by measuring extracellular ROS levels using the nanowire biosensor, was performed and the obtained data is presented in FIGS. 6A-G. Measured ROS levels were normalized by the number of live cells.

Compound | pH of treated cells versus control [1] | cell viability [2] | cell proliferation rate ([2]; after 24 hours, relative cell count = count at t=24 hours / initial count) | cellular lactate secretion [3] | ROS level [4]
O=CC[C@@H](O)[C@H](O)[C@H](O)CO [2DG, 2-deoxy-D-glucose] | more basic than the control | anti-proliferative activity | reduced | decreased | noticeable decrease
CN(Cc1cnc2nc(N)nc(N)c2n1)c1ccc(C(=O)N[C@@H](CCC(=O)O)C(=O)O)cc1 [MTX, methotrexate hydrate] | – | anti-proliferative activity | – | – | noticeable decrease
